Source: US8685936B2, “Sphingosine kinase inhibitor prodrugs” (Apogee Biotechnology Corporation, priority 2009, dated 2014)

How the values were obtained:
[1] = system: esterases in mouse plasma; test: Conversion of ester prodrugs to Compound 1 by mouse plasma (HPLC); type: in vitro ADME
Method: FIG. 2. Chromatogram of Compound 2. Purified Compound 2 was analyzed by high-performance liquid chromatography using a Waters 2795 system equipped with a photodiode array detector. Separations were conducted using a Nova-Pak C18 column (3.9×150 mm, Waters) eluted isocratically with a mobile phase that consisted of 65% Solvent A (methanol containing 0.1% formic acid) and 35% Solvent B (5% acetonitrile and 95% water containing 0.1% formic acid) at a flow rate of 0.6 mL/min. Compound 2 was detected by its absorbance at the wavelength of 265 nm.
FIG. 3. Conversion of Compound 2 to Compound 1 by plasma enzymes. Purified Compound 2 was incubated with mouse plasma for 5 minutes at room temperature. The sample was then extracted and analyzed by high-performance liquid chromatography as described for FIG. 2.
Prodrugs are compounds that are converted to a biologically active metabolite through the action of enzymes in the body. […] When Compound 2 was incubated with plasma isolated from mouse blood at room temperature for 5 minutes and then analyzed by a similar HPLC process, the peak corresponding to Compound 2 was reduced by more than 95%, and new compounds that eluted with retention times consistent with the monoester of Compound 1, i.e. one of the acetyl esters had been removed, and Compound 1 itself, i.e. both of the acetyl esters had been removed (FIG. 3). […]

[2] = system: Murine JC mammary adenocarcinoma cells; test: Cytotoxicity, MTS cell viability assay; type: cell-based; settings: 72 hours
From the text: FIG. 5. Inhibition of tumor cell proliferation by Compound 1 and Compound 2. Murine JC mammary adenocarcinoma cells were exposed to the indicated concentrations of either Compound 1 (▪) or Compound 2 (▴) for 72 hr. At the end of the exposure, the number of viable tumor cells was quantified using the MTS assay. Values represent the fraction of surviving cells compared with DMSO-(vehicle)-treated control cells.
To further assess the biological efficacies of the Compounds in intact cells, Compound 1 and Compound 2 were evaluated for cytotoxicity using a murine breast cancer cell line. These experiments followed methods that have been extensively used. The cells were treated with varying doses of the test Compound for 72 hours, and then cell viability was measured using CellTiter 96® AQueous Non-Radioactive Cell Proliferation Assay (MTS) available from Promega Corporation. Values represent the mean±std. dev. percentage of cells that survive at each of the indicated concentrations of Compound 1 or Compound 2. […] However, the extent of cell killing and the potency for cell killing were greater for Compound 2 than Compound 1.

[3] = system: mouse JC mammary adenocarcinoma tumors; test: Antitumor activity, JC mammary adenocarcinoma tumors growing subcutaneously in Balb/c mice; type: in vivo; settings: 50 mg/kg of Compound 2 daily for five days per week
Method: FIG. 6. Antitumor activity of Compound 2 alone and in combination with gemcitabine. Murine JC mammary adenocarcinoma cells were injected subcutaneously into Balb/c mice and tumors were allowed to grow to approximately 150 mm^3. The animals were then treated with vehicle alone (▪), 1 mg/kg of gemcitabine weekly (▴), 50 mg/kg of Compound 2 daily for five days per week (▾) or a combination of gemcitabine plus Compound 2 (♦). Tumors were measured twice per week. The values shown represent the average tumor volume+/−the std. dev. for each group (n=8).
The antitumor activity of a representative prodrug SK inhibitor was evaluated using a […] tumor model that uses the mouse JC mammary adenocarcimona cell line growing subcutaneously in immunocompetent Balb/c mice (Lee et al., Oncol Res 14: 49 (2003)). These cells express elevated levels of SK activity relative to non-transformed cells, as well as the multidrug resistance phenotype due to P-glycoprotein activity. Murine JC mammary adenocarcinoma cells were injected subcutaneously into Balb/c mice and tumors were allowed to grow to approximately 100 mm^3. The animals were then treated with vehicle alone (▪), 1 mg/kg of gemcitabine weekly (▴), 50 mg/kg of Compound 2 daily for five days per week (▾) or a combination of gemcitabine plus Compound 2 (♦). Tumors were measured twice per week. […]

[4] = system: TNBS-induced Crohn's Disease model; test: TNBS-induced Crohn's Disease model; type: in vivo
Method: FIG. 12. Effects of Compound 1 and Compound 2 on colon histology in the TNBS-induced Crohn's Disease model. On Day 0, female Sprague-Dawley rats were administered TNBS using a stainless steel catheter that was inserted into the colon (8 cm proximal to the anus; 1.0 mL of solution containing 30 mg TNBS and 20% ethanol in PBS). On Days 0-5 animals received daily oral gavage of Vehicle (described in FIG. 7) or 50 mg/kg of Compound 1 or Compound 2 in Vehicle. On Day 6, the colons were removed, weighed and scored for macroscopic damage. The distal 6 cm were transected for subsequent histology and biochemical analyses. In this model, the macroscopic score is an index of histologic damage to the colon which increases as the disease progresses.
FIG. 13. Effects of Compound 1 and Compound 2 on colon weight in the TNBS-induced Crohn's Disease model. Colon weights were measured for the rats described in FIG. 12. Values represent the mean±std. dev. for 5-6 rats per group. In this model, colon weight increases as the disease progresses due to progressive inflammation-mediated edema.
FIG. 14. Effects of Compound 2 on neutrophil infiltration into the colon in the TNBS-induced Crohn's Disease model. Neutrophil infiltration was evaluated in the rats described in FIG. 12. Values represent the mean±std. dev. for 5-6 rats per group. In this model, MPO activity in the colon increases as a result of neutrophil infiltration into the colon as the disease progresses.
The trinitrobenzene sulfonic acid (TNBS) model in rats provides a rapid, reliable and reproducible IBD model that mimics the manifestations of Crohn's Disease. Application of the hapten TNBS to the colon in the presence of ethanol results in transmural infiltrative disease that is limited to the colon and appears to be an IL-12-driven, Th1-mediated immunologic response. […] TNBS induces measurable injury within 2 to 3 days, peak acute inflammation within a week, and gradual progression into chronic inflammation lasting about 2 months.
To test the efficacy of the Compounds, groups of female Sprague-Dawley rats were administered TNBS on Day 0 and treated with vehicle (as the negative control group), Compound 1 or Compound 2 on Days 0-5 by oral gavage at a dose of 50 mg/kg/day. […] Disease progression was evaluated by macroscopic score, colon weight and colon MPO activity at sacrifice. The macroscopic score measures macroscopic damage within the distal 6 cm of the colon using a system that considers the extent of and number of ulcerations.

[5] = TNBS Day 0, 50 mg/kg/day oral gavage Days 0-5, Day 6, female Sprague-Dawley rats

CC(=O)Oc1ccc(CCNC(=O)C23CC4CC(C2)CC(c2ccc(Cl)cc2)(C4)C3)cc1OC(C)=O [Compound 2, Acetic acid 2-acetoxy-5-(2-{[3-(4-chlorophenyl)-adamantane-1-carbonyl]-amino}ethyl)phenyl ester]
reduction of the HPLC peak corresponding to Compound 2 ([1]; incubated with mouse plasma at room temperature for 5 minutes): more than 95%
cleavage of the esters / conversion to Compound 1 by mouse plasma ([1]; mouse plasma, room temperature, 5 minutes, HPLC): rapidly convert Compound 2 into Compound 1
extent of cell killing, Compound 2 compared with Compound 1 [2]: greater
inhibition of tumor cell proliferation (cell viability) [2]: can inhibit tumor cell proliferation
potency for cell killing, Compound 2 compared with Compound 1 [2]: greater
tumor growth (tumor volume) [3]: significant reduction of tumor growth
Compound-related toxicities ([4]; 50 mg/kg/day oral gavage Days 0-5, rats sacrificed on Day 6): no Compound-related toxicities apparent
Macroscopic Score of colon damage [4, 5]: reduced the Macroscopic Score
colon MPO activity (granulocyte infiltration) [4, 5]: reduced MPO activity in the colon
colon weight [4, 5]: reduced the elevation of the colon weight
